The values below come from US20050106305A1, “Beverage compositions comprising monatin and methods of making same” (Cargill, Inc., priority 2003, published 2005).

Data set [1] can be described thus: Stability of monatin at pH 3 with increasing temperatures. Format: physicochemical. Here is the method:
A sample of synthetic monatin was subjected to pH 3 at temperatures of 25° C., 50° C. and 100° C. At room temperature and pH 3, a 14% loss in monatin was observed over a period of 48 hours. This loss was attributed to lactone formation. At 50° C. and pH 3, a 23% loss in monatin was observed over a period of 48 hours. This loss was attributed to lactone formation and the buildup of an unknown compound after about 15.5 minutes. […] The major detectable component was an unknown at 15.5 minutes.

Data set [2] is described as follows: Sweetness dose response of monatin and saccharin, model system pH 3.2. Format: in vivo. As to the method:
Sweetness of monatin and saccharin was assessed using 20 trained sensory evaluators, making judgements in duplicate. Test and reference solutions were prepared in citric/citrate buffer at pH 3.2. […] The plateau above 10% SEV indicates absence/low levels of “mixture-suppressing” off-tastes and aftertastes. The shape of monatin's dose-response curve is similar to those of aspartame, sucralose and alitame, all of which are “quality” sweeteners.

Data set [3] in a line: Monatin dose response, sweetness estimation in pH 3.2 model soft drink system. Format: in vivo. The conditions noted are these: for SEV: pH 3.2 model soft drink system. Here is the method:
Solutions of monatin (mixture of approximately 96% of the 2R,4R/2S, 4S enantiometric pair and 4% of the 2R,4S/2S,4R enantiometric pair-also called “racemic mix” of monatin”) at 15, 30, 45, 60, 75 and 90 ppm were prepared in a pH 3.2 model soft drink system that contained 0.14% (w/v) citric acid and 0.04% (w/v) sodium citrate. The sweetness of monatin relative to sucrose was determined using the sweetness estimation methodology described below. All assessments were carried out in duplicate by a panel (n=6-8) of trained panelists experienced in this sweetness determination procedure. All samples were served at a temperature of 20° C. ±1° C.
Monatin solutions were coded and presented individually to panelists, in random order. Sucrose reference standards, ranging from 2.0-11.0% (w/v) sucrose, increasing in steps of 0.5% (w/v) sucrose also were provided. Panelists were asked to estimate sweetness by comparing the sweetness of the test solution to the sucrose standards. This was carried out by taking 3 sips of the test solution, followed by a sip of water, followed by 3 sips of sucrose standard followed by a sip of water, etc. Panelists were encouraged to estimate the sweetness to one decimal place, e.g., 6.8, 8.5. A five minute rest period was imposed between evaluating the test solutions. Panelists also were asked to rinse well and eat a cracker to reduce any potential carry over effects.

Data set [4] can be described thus: Sensory stability of monatin in water. Format: physicochemical. Here is the method: The sensory stability of monatin (racemic mix described in Example 14) in water (8% SEV) was studied after storage at room temperature for 0 to 6 hours. The SEV was monitored (as described above in Example 14) at either 0-1 hours or 5-6 hours after preparing a monatin solution.

Data set [5] in a line: Quantitative synergy of monatin with other sweeteners. It counts as in vivo.
Data set [6] is described as follows: Stability of monatin at 80° C. and neutral pH, LC-MS. It counts as physicochemical. Particulars: 75 ppm. Here is the method:
A 100 milliliter solution of 75 ppm monatin at pH 7 was used as a stock solution. The synthetic monatin sample contained approximately 96% of the 2R,4R/2S,4S enantiomeric pair and 4% of the 2R,4S/2S,4R enantiomeric pair. Samples were incubated at 80° C. and pH 7 for the duration of the experiment and samples were withdrawn at 0, 1, 2, 3, 4 hours and 1, 2, 4, 7, 14, 21 and 35 days. All experimental conditions were run in duplicate.
Separation and Quantification Using LC-MS Using Reverse Phase Chromatography—A response curve was established for both detected diastereomer peaks of the synthetic monatin. A range of 5-150 ppm was bracketed with the synthetic monatin standard dissolved in DI water. Separation of the two diastereomer peaks was accomplished using a 3.9×150 mm Novapak C18 (Waters Corporation) HPLC column. Ultraviolet-Visible (UV) and Mass Spectrometer (MS) detectors were used in series for detection and quantitation. Monatin and its lactone peak each have a UVmax at 279 nm that aided in precise detection. Quantification was done by acquiring Selected Ion Monitoring (SIM) scan of 293.3 m/z and 275.3 m/z in positive-ion electrospray mode.

Data set [7] is described as follows: Time intensity profile in a soft drink system. Format: in vivo. The conditions noted are these: 80 ppm monatin, 10.0% sucrose, 200 ppm sucralose, pH 3.2 model soft drink. Here is the method:
Solutions of 80 ppm monatin (racemic mix of monatin described in Example 14), 10.0% (w/v) sucrose and 200 ppm sucralose were prepared in the pH 3.2 model soft drink system described in Example 14. The time intensity profile of these solutions then was assessed using the following procedure. Six panelists were included in the study. These panelists were screened for their general sensory acuity and selected for their sensitivity to sweetness intensity and sweetness quality differences. All were experienced in methods of sweetener assessment and had received special training in time intensity evaluations. Training sessions were carried out initially to familiarize the panel with the method of evaluation and scoring the samples over time using a computerized data entry system.
Samples of each solution (13 mL) were coded and presented individually to panelists, in random order. For each panelist, immediately after swallowing, the computer recorded timed intensity readings on the scale of 0-100 each second, up to 60 seconds. Each solution was evaluated in duplicate.

The nature of data set [8]: Sensory evaluation of sweeteners in coffee and iced tea. Particulars: Coffee, 200 mL serving; aspartame 250 ppm, sucralose 82 ppm, R,R monatin 25 ppm + maltodextrin or erythritol (1 g, 0.5%). Format: in vivo. Here is the method:
Monatin sweetener formulations, comprising R,R monatin or R,R monatin/erythritol combinations, were assessed relative to other known sweeteners (aspartame and sucralose) in coffee and iced tea. The key sensory parameters assessed included sweetness quality, aftertaste, bitter taste and its aftertaste. Qualitative evaluation was carried out.
Standard coffee was used in which to evaluate sweetener performance (Table 17).
Sweeteners were added to coffee at the following concentrations:
An ice tea formulation was developed to evaluate sweetener performance (Table 18).
Sweeteners were added to tea at the following concentrations:
The evaluation of these coffee and tea drinks was carried out by a panel (n=6) of experienced sensory evaluators who evaluated the coffee products on one tasting occasion and the tea products on a subsequent occasion.

Setting [9] is: sole sweetener in the model system (pH 3.2).

Where a SMILES comes first, the peptide text is derived from it.

`NC(CC(O)(Cc1c[nH]c2ccccc12)C(=O)O)C(=O)O` (racemic) [Monatin, 2-hydroxy-2-(indol-3-ylmethyl)-4-aminoglutaric acid] came in with a loss in monatin in data set [1] (50° C. and pH 3, over 48 hours) of 23%. Also, the loss in monatin result in data set [1] (100° C. and pH 3, after 24 hours) was “nearly all monatin was lost”. The loss in monatin in data set [1] (room temperature (25° C.) and pH 3, over 48 hours) was found to be 14%. In addition, in data set [2] (setting [9]), the Aftertaste result is reported as “slight “aspartame-like” aftertaste”, the sweet taste decay result is “quite rapid” and the sweet taste onset entry is on record as “slight delay”. For the same molecule, the cooling sensation entry in data set [2] (sole sweetener, un-flavored systems (pH 3.2)) is “residual cooling sensation”. The SEV in data set [3] (Monatin Conc. 15 ppm) is listed as 3.6 %; w/v. For the same molecule, the SEV in data set [3] (Monatin Conc. 30 ppm) is listed as 4.9 %; w/v. In data set [3] (Monatin Conc. 45 ppm), the SEV was 7.1 %; w/v. In addition, the SEV in data set [3] (Monatin Conc. 60 ppm) is on record as 8.5 %; w/v. Moreover, in data set [3] (Monatin Conc. 75 ppm), the SEV is recorded as 9.8 %; w/v. In addition, the SEV in data set [3] (Monatin Conc. 90 ppm) was 10.5 %; w/v. In addition, the relative sweetness intensity in data set [3] (at 10.0% (w/v) SEV, blend of monatin stereoisomers (racemic mix)) is recorded as 1250 × sweeter than sucrose. Besides, the “loss of monatin SEV” value in data set [4] (8% SEV, after 6 hours in room temperature) is “no detectable loss”. In addition, in data set [4] (room temperature, 0 to 6 hours), the “lactonization (LC/MS)” value is “no lactonization”. Further, in data set [5] (blends), the “quantitative synergy with aspartame, saccharin, acesulfame-K, sucralose, or carbohydrate sweeteners” value is “no significant quantitative synergy”. Besides, in data set [5] (blends with cyclamates), the “quantitative synergy with cyclamates” value is recorded as “quantitatively synergistic”. For the same molecule, the “change in concentration of monatin or lactones thereof” value in data set [6] (80° C. and pH 7, up to 35 days) is “no change in concentration”. Further, in data set [6] (80° C., pH 7, after 7-35 days), the “degree of degradation of monatin” value is listed as “insignificant”. In data set [7], the “Area Under Curve” value came to 117.3 unit × s, the “Rate of Decline” value was determined as 2.2 unit/s, the “Rate of Onset” value was determined as 14.9 unit/s and the “Time for Sweetness to Decline to Half Maximum Value” was determined as 34.2 s. In data set [7], the “Time to Half Maximum Sweetness” value stood at 2.4 s and the “Time to Maximum Sweetness” value was determined as 9.0 s. Further, in data set [7] (scale 0-100), the “Intensity of Maximum Sweetness” value came out at 66.6 unit.
Consider `COC(=O)[C@H](Cc1ccccc1)NC(=O)[C@@H](N)CC(=O)O` [Aspartame, aspartame] (H-Asp-Phe-OMe), for which, in data set [8], the “Comments (sensory evaluation)” value was “Balanced sweetness profile. Very low level”.
